Laboratory results published in patent US10156566B2, “Detoxification of microbial virulence factors in oral cavity” (priority 2015, dated 2018).
“And” between values parts separate entries of the source, which are not always exact repeats. Equal values may be shown once. Where a name gives a salt, the structure may show the parent alone.

Tests used:
E. coli LPS = assay: Displacement of LPS from binding to BODIPY TR cadaverine (Tables 3, 9, 12, 13); details: E. coli LPS 15 μg/ml

CCCCC/C=C\C/C=C\C/C=C\C/C=C\CCCC(=O)Nc1ccc(O)cc1 [AM404]
inhibition (Lipopolysaccharide): 47.6%

CCCCCCCCCCCCCCCOS(=O)(=O)O [Sodium pentadecyl sulfate]
inhibition (Lipopolysaccharide): 86.6%

COc1cc(/C=C/C(=O)CC(=O)/C=C/c2ccc(O)c(OC)c2)ccc1O [Curcumin]
inhibition (Lipopolysaccharide): 55.9%

CCCCCCCCCCCCCCCCCCN(CCO)CCO [STEARYLDIETHANOLAMINE]
inhibition (Lipopolysaccharide): 88.1%

CCCCCCCCCCCCCCCCCCCCCC(=O)NCCS(=O)(=O)O [N-Docosanoyl Taurine]
inhibition (Lipopolysaccharide): 85.2%

Benzalkonium chloride [reference compound]
inhibition (Lipopolysaccharide): 97.5%

CCCCCCCCCCCC[P+](c1ccccc1)(c1ccccc1)c1ccccc1 [DODECYLTRIPHENYLP[…], 98%, DODECYLTRIPHENYLP[…]]
inhibition (Lipopolysaccharide): 91.1%

O=S(=O)(O)c1ccc(O)cc1 [Aluminum phenol sulfonate]
inhibition (Lipopolysaccharide): 27.4%

CCCCCCCCCCCCCCCC(=O)NCCO [palmitamide mea]
inhibition (Lipopolysaccharide): 13.2%

CCCCCCCCCCCCCCCC[N+](C)(C)C [Cetrimonium chloride]
inhibition (Lipopolysaccharide): 99.5%

CCCCCCCCCCCCCCCCCC[N+](C)(C)C [Steartrimonium chloride]
inhibition (Lipopolysaccharide): 71.3%

CCCCCCCCCCCCCCCCOC[C@H](COP(=O)([O-])OCC[N+](C)(C)C)OC(=O)NC [Methylcarbamyl PAF C-16]
inhibition (Lipopolysaccharide): 59.7%

CC/C=C\C/C=C\C/C=C\CCCCCCCC(=O)O [α-linoleic acid]
inhibition (Lipopolysaccharide): 97.9%

CCCCCCCCCCCCCCCC(=O)OC[C@H](COP(=O)([O-])OCC[N+](C)(C)C)OC(=O)CCCC=O [POV-PC]
inhibition (Lipopolysaccharide): 48.7%

CCCCC/C=C\C/C=C\C/C=C\C/C=C\CCCC(=O)OCC [ethyl arachidonate]
inhibition (Lipopolysaccharide): 28.7%

CC/C=C\C/C=C\C/C=C\CCCCCCCC(=O)OC [α-linolenic acid methyl ester]
inhibition (Lipopolysaccharide): 24.9%

CCCCCCCC/C=C\CCCCCCCC(=O)OCCOCCO [diglycol monooleate]
inhibition (Lipopolysaccharide): 67%

CCCCCCCCCCCCC/C=C/[C@@H](O)[C@H](CO)NCCCCCCCC [C-8 Ceramine]
inhibition (Lipopolysaccharide): 96.7%

CCCCCCCCCCCCCCCCOS(=O)(=O)O [Sodium hexadecyl sulfate]
inhibition (Lipopolysaccharide): 89.4%

CCCCCCCC/C=C\CCCCCCCCN [Oleyl amine]
inhibition (Lipopolysaccharide): 99.6%

CCCCCCCC[N+](C)(C)CCCCCCCC [Dioctyldimethylammonium chloride]
inhibition (Lipopolysaccharide): 93.3%

CCCCCCCCCCCCC/C=C/[C@@H](O)[C@@H](N)CO [D-erythro-Sphingosine C-18]
inhibition (Lipopolysaccharide): 63.8%

CC(C)=CCC/C(C)=C/CC/C(C)=C/CC[C@]1(C)CCc2cc(O)c(C)c(C)c2O1 [γ-Tocotrienol]
inhibition (Lipopolysaccharide): 38.5%

CCCCCCCCCCCC(=O)NCCCN(C)C [(Laurylamidopropyl)dimethyl amine]
inhibition (Lipopolysaccharide): 99.1%

CCCCCCCCCCCCCS(=O)(=O)O [TRIDECYL SULFONIC ACID SODIUM SALT]
inhibition (Lipopolysaccharide): 95.6%

CCCCCCCCCCCCN(CCO)CCO [N-Lauryldiethanolamine]
inhibition (Lipopolysaccharide): 99.6% and 100%

CCCCCCCCCCCC[N+](C)(C)Cc1ccccc1 [Dimethyldodecylbenzylammonium chloride]
inhibition (Lipopolysaccharide): 98.2%

Laureth-6
inhibition (Lipopolysaccharide): 100%

1,3-Diphenylacetone (1,3 diphenyl-2-propanone)
LPS displacement % Mean (E. coli LPS): 11% | LPS displacement % Reading 1 (E. coli LPS): 16% | LPS displacement % Reading 3 (E. coli LPS): 5%

CCCCCCCC/C=C\CCCCCCCC(=O)NCCO [Oleoylethanolamide]
inhibition (Lipopolysaccharide): 34.1%

CCCCCCCCCC(=O)OC[C@H](COP(=O)([O-])OCC[N+](C)(C)C)OC(=O)CCCCCCCCC [1,2-Didecanoyl PC]
inhibition (Lipopolysaccharide): 67.9%

CCCCCCCC/C=C\CCCCCCCC(=O)OC[C@H](CO)OC(C)=O [1-Oleoyl-2-acetyl-sn-glycerol]
inhibition (Lipopolysaccharide): 36.2%

CCCCCCCCCCCCC/C=C/[C@@H](O)[C@H](CO)NC(=O)CCCCCCC [C-8 Ceramide]
inhibition (Lipopolysaccharide): 65.5%

CC(C)=CCC/C(C)=C/CC/C(C)=C/CC[C@]1(C)CCc2cc(O)cc(C)c2O1 [δ-Tocotrienol]
inhibition (Lipopolysaccharide): 52.4%

CCCCCCCCCCCC(=O)NCCCN(C)C [Dimethylaminopropyllaurylamide]
inhibition (Lipopolysaccharide): 99.4%

CC(C)CCOC(=O)c1ccccc1 [Isopentyl benzoate]
LPS displacement % Mean (E. coli LPS): 18% | LPS displacement % Reading 1 (E. coli LPS): 22% | LPS displacement % Reading 3 (E. coli LPS): 13%

CCCCCCCCCCCC(=O)NCCO [Dodecanamide MEA]
inhibition (Lipopolysaccharide): 44.3%

C=CC[N+](C)(C)CC=C.[Cl-] [Diallyldimethylammonium chloride]
LPS displacement % Mean (E. coli LPS): 35% | LPS displacement % Reading 1 (E. coli LPS): 40% | LPS displacement % Reading 2 (E. coli LPS): 38% | LPS displacement % Reading 3 (E. coli LPS): 28%

CCCCCCCCc1ccc(CCC(N)(CO)CO)cc1 [FTY720, reference compound]
inhibition (Lipopolysaccharide): 79.1%

C=CCCCCCCCCC=O [Undecylenic aldehyde]
LPS displacement % Mean (E. coli LPS): 22% | LPS displacement % Reading 1 (E. coli LPS): 29% | LPS displacement % Reading 3 (E. coli LPS): 15%

CCCCCCCCCC[N+](C)(C)CCCCCCCCCC [Didecyldimethylammounium chloride]
inhibition (Lipopolysaccharide): 97.5%

Octoxynol-9
inhibition (Lipopolysaccharide): 9.83%

CC/C=C\C/C=C\C/C=C\C/C=C\C/C=C\CCCC(=O)O[C@H](COCCCCCCCCCCCCCCCC)COP(=O)([O-])OCC[N+](C)(C)C [Eicosapentaenoyl PAF C-16]
inhibition (Lipopolysaccharide): 82.7%

[Cu+].[I-] [Copper(I) iodide]
LPS displacement % Mean (E. coli LPS): 18% | LPS displacement % Reading 1 (E. coli LPS): 23% | LPS displacement % Reading 2 (E. coli LPS): 12% | LPS displacement % Reading 3 (E. coli LPS): 20%

CCCCC/C=C\C/C=C\CCCCCCCC(=O)O [potassium linoleate]
inhibition (Lipopolysaccharide): 98.9%

O=C1O/C(=C/Br)CCC1c1cccc2ccccc12 (centres unmarked) [Bromoenol lactone]
inhibition (Lipopolysaccharide): 99.7%

O=C1O/C(=C/Br)CC[C@H]1c1cccc2ccccc12 [(S)-Bromoenol lactone]
inhibition (Lipopolysaccharide): 95.2%

CCCCC/C=C\C/C=C\C/C=C\C/C=C\CCCC(=O)NCCc1ccc(O)c(O)c1 [N-Arachidonoyl Dopamine]
inhibition (Lipopolysaccharide): 49.1%

CCCCCCCCCCCCC/C=C/[C@@H](O)[C@H](COP(=O)(O)O)NC(=O)CCCCCCC [C-8 Ceramide-1-phosphate]
inhibition (Lipopolysaccharide): 42.7%

Quaternium-17
inhibition (Lipopolysaccharide): 100%

CCCCC/C=C\C/C=C\C/C=C\C/C=C\CCCC(=O)O[C@H](COC(=O)CCCCCCCCCCCCCCCCC)COP(=O)([O-])OCC[N+](C)(C)C [1-Stearoyl-2-Arachidonoyl PC]
inhibition (Lipopolysaccharide): 55%

CC(C)c1ccc2c(c1)c(SC(C)(C)C)c(CC(C)(C)C(=O)O)n2Cc1ccc(Cl)cc1 [MK 886 (sodium salt)]
inhibition (Lipopolysaccharide): 47.2%

CCCCCCCCCCCC[N+](C)(C)Cc1ccccc1 [Dimethyldodecylbenzylammonium bromide]
inhibition (Lipopolysaccharide): 98.1%

CC(C)CCC[C@@H](C)[C@H]1CC[C@H]2[C@@H]3CC(=O)[C@@]4(O)C[C@@H](O)CC[C@]4(C)[C@H]3CC[C@]12C [5α-hydroxy-6-keto Cholesterol]
inhibition (Lipopolysaccharide): 81.7%

CCCCCCCCCCCCCCCCOCC(CO)OC (centres unmarked) [Hexadecyl Methyl Glycerol]
inhibition (Lipopolysaccharide): 40%

CCCCCCCC/C=C\CCCCCCCC(=O)OCC(O)CO (stereo not drawn) [α-glyceryl monooloeate]
inhibition (Lipopolysaccharide): 49%

CC(C)=CCC/C(C)=C/CC/C(C)=C/CC[C@]1(C)CCc2c(C)c(O)c(C)c(C)c2O1 [alpha.-Tocotrienol]
inhibition (Lipopolysaccharide): 29.9%

CCCCCCCCCCCCCCCCOC[C@H](CO)OC(C)=O [Hexadecyl Acetyl Glycerol]
inhibition (Lipopolysaccharide): 42%

CCCCCCCCCCCCCCCC(=O)NCC(=O)O [N-Palmitoyl Glycine]
inhibition (Lipopolysaccharide): 85.8%

CCCCCCCCCCCCCCCC(=O)OC[C@H](COP(=O)([O-])OCC[N+](C)(C)C)OC(=O)CCCCCCCC(=O)O [PAz-PC]
inhibition (Lipopolysaccharide): 72.8%

CCCCC/C=C\C/C=C\C/C=C\C/C=C\CCCC(=O)NCCO [Anandamide (N-arachidonylethanol amide)]
inhibition (Lipopolysaccharide): 31.3%

CCCCC/C=C\C/C=C\C/C=C\C/C=C\CCCC(=O)OCC(O)CO (centres unmarked) [1-Arachidonoyl Glycerol]
inhibition (Lipopolysaccharide): 41.8%

CCCCCCCCCC(=O)OC[C@H](CO)OC(=O)CCCCCCCCC [1,2-Didecanoyl-sn-glycerol]
inhibition (Lipopolysaccharide): 47.4%

CCCCCCCCCCCCCC[N+](C)(C)Cc1ccccc1 [Tetradecylbenzyldimethylammonium chloride]
inhibition (Lipopolysaccharide): 93.8%

Laureth-9
inhibition (Lipopolysaccharide): 99.9%

CCCCCCCC(=O)OC[C@H](CO)OC(=O)CCCCCCC [1,2-Dioctanoyl-sn-glycerol]
inhibition (Lipopolysaccharide): 51.2%

CCCCCCCCCCCCCCCC(=O)NCCO [Hexadecanamide MEA]
inhibition (Lipopolysaccharide): 32.5%

Cc1cc(C(C)(C)CC(C)(C)C)ccc1OCCOCC[N+](C)(C)Cc1ccccc1 [Methylbenzethonium chloride, reference compound]
inhibition (Lipopolysaccharide): 93%

CC/C=C\C/C=C\C/C=C\CCCCCCCC(=O)OCC [(z,z,z)-9,12,15-octadecatrienoic acid ethyl ester]
inhibition (Lipopolysaccharide): 34.9%

CCCCC/C=C\C/C=C\C/C=C\C/C=C\CCCCOC(CO)CO [2-Arachidonyl Glycerol ether]
inhibition (Lipopolysaccharide): 35%

CCCCC/C=C\C/C=C\CCCCCCCC(N)=O [linoleamide]
inhibition (Lipopolysaccharide): 75.2%

CCCCCCCC/C=C\CCCCCCCCCCCCCC(=O)NCCS(=O)(=O)O [N-Nervonoyl Taurine]
inhibition (Lipopolysaccharide): 79.8%

CCCCCCCCCCCCCCCCCC[N+](C)(C)Cc1ccccc1 [Stearalkonium chloride]
inhibition (Lipopolysaccharide): 96.5%

CCCCCC/C=C\CCCCCCCC(=O)OCC [ethyl cis-9-hexadecenoate]
inhibition (Lipopolysaccharide): 31.8%

CCCCCCCCCCCC[N+](C)(C)CCOc1ccccc1 [Domiphen bromide, reference compound]
inhibition (Lipopolysaccharide): 95.5%

O=C1O/C(=C/Br)CC[C@@H]1c1cccc2ccccc12 [(R)-Bromoenol lactone]
inhibition (Lipopolysaccharide): 97.3%

CCCCCCCCCCCCC/C=C/[C@@H](O)[C@H](CO)NC(=O)CCCCC [C-6 Ceramide]
inhibition (Lipopolysaccharide): 48%

CCCCCCCCCCCCCCCC[N+](C)(C)C [Cetyltrimethylammonium bromide]
inhibition (Lipopolysaccharide): 99.5%

CCCCCCCC/C=C\CCCCCCCC(=O)OCCO [9-octadecenoic acid (z)-,2-hydroxyethyl ester]
inhibition (Lipopolysaccharide): 46%

CCCCCCCCCCCCCCCC[N+](C)(C)Cc1ccccc1 [Dimethylbenzylcetylammonium chloride]
inhibition (Lipopolysaccharide): 95.5%
